Consider eleven molecules from patent US10479780B2, “Aminopyrazole derivatives” (Chugai Seiyaku Kabushiki Kaisha, priority 2015, dated 2019).

What all share (type): biochemical
The target in test [1] is T1, human Yes1 enzyme (Homo sapiens, UniProt P07947).
T1 construct: made in house
In words: Yes1 enzyme inhibitory activity (time-resolved fluorometry, biotinylated peptide phosphorylation). Conditions: read-out: YES_IC50. The method, boiled down: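 Inhibition was expressed against a compound-free control to give IC50, using TR-FRET read-out (Eu-cryptate anti-pTyr antibody, streptavidin-XL665).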

Test [2] addresses T2, human Src enzyme (Homo sapiens, UniProt P12931).
T2 construct: purchased Carna Biosciences, Inc. 08-173
Kind of test: Src enzyme inhibitory activity (time-resolved fluorometry, biotinylated peptide phosphorylation). To be noted: read-out: SRC_IC50. Summed up:
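Compounds were tested for blocking tyrosine phosphorylation of a biotinylated peptide substrate by recombinant human Src. Phosphorylated product was quantified by time-resolved fluorometry using europium cryptate and XL665 conjugates, and IC50 was calculated against the compound-free control.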

In test [3] the target is T3, human Lck enzyme (Homo sapiens, UniProt P06239).
T3 construct: purchased Carna Biosciences, Inc. 08-170
In words: Lck enzyme inhibitory activity (time-resolved fluorometry, biotinylated peptide phosphorylation). Conditions: read-out: LCK_IC50. Summed up: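 Readout pairs a europium cryptate-labelled anti-phosphotyrosine antibody with XL665-streptavidin, measured by time-resolved fluorescence. IC50 derived from percent inhibition against untreated controls.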

The mark [4] stands for this setting: biotinylated peptide phosphorylation.

Like-named read-outs stand apart in the source and are kept apart here.

T3 sequence (P06239 whole entry): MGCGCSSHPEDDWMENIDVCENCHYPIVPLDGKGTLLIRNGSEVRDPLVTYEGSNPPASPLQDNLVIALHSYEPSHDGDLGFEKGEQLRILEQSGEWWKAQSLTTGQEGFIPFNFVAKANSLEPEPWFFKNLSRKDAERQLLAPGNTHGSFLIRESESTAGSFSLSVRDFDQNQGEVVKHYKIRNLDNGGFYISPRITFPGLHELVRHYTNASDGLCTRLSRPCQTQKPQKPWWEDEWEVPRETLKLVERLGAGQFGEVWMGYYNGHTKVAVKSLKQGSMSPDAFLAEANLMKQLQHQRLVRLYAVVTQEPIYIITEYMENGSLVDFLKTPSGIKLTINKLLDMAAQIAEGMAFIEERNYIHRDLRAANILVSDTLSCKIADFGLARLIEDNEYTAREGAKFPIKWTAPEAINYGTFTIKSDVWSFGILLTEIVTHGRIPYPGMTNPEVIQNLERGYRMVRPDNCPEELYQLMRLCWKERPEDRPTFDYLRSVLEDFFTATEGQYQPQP
T1 sequence (P07947 whole entry): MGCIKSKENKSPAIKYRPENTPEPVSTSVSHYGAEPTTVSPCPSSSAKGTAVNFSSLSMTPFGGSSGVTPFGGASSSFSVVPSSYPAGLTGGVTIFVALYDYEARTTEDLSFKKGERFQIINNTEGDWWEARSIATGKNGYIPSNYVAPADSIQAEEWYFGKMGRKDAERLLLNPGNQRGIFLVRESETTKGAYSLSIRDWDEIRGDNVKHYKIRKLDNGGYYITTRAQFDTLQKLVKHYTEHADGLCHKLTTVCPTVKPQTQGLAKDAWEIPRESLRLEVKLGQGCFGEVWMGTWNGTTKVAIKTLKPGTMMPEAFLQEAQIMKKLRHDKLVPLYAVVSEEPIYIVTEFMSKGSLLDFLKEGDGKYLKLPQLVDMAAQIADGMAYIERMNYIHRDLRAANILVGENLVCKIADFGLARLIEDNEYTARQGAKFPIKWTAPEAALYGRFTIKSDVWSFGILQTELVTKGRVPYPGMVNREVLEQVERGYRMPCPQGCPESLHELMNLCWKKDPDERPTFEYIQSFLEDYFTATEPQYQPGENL
T2 sequence (P12931 whole entry): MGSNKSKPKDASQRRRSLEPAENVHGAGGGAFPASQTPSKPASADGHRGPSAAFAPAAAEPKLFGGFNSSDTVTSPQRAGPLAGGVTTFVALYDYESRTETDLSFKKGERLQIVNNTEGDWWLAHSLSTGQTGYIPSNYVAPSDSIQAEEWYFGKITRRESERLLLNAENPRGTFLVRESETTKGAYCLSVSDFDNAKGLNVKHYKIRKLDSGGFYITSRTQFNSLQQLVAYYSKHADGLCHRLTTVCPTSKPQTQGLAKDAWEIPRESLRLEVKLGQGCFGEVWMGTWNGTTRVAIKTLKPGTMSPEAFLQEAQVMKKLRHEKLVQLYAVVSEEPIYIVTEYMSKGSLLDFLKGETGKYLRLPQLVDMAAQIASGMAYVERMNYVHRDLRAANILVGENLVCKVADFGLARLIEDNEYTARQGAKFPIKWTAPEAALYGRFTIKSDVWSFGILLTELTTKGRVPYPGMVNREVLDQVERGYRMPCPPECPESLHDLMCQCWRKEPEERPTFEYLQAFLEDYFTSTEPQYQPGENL

As for `COc1cccc(S(=O)(=O)Nc2cc3[nH]c(C(=O)c4cnn(-c5cnc(Oc6ccccc6F)cc5C)c4N)cc3cc2C)n1` [Example 5-1-483, N-[2-[5-amino-1-[6-(2-fluorophenoxy)-4-methylpyridin-3-yl]pyrazole-4-carbonyl]-5-methyl-1H-indol-6-yl]-6-methoxypyridine-2-sulfonamide], the IC50 was 6.7 nM in test [1] (setting [4]), 710 nM in test [2] (setting [4]) and 250 nM in test [3] (setting [4]).

As to `Cc1cc(Oc2ccccc2F)ccc1-n1ncc(C(=O)c2cc3cc(F)c(N4C(=O)NC5(CCOCC5)C4=O)cc3[nH]2)c1N` [Example 5-1-437, 3-[2-[5-amino-1-[4-(2-fluorophenoxy)-2-methylphenyl]pyrazole-4-carbonyl]-5-fluoro-1H-indol-6-yl]-8-oxa-1,3-diazaspiro[4.5]decane-2,4-dione], the figures for the IC50 in test [1] (setting [4]), in test [2] (setting [4]) and in test [3] (setting [4]) were 0.79 nM, 40 nM and 7.8 nM, respectively.

Take `Cc1cc2cc(C(=O)c3cnn(-c4cnc(Oc5cccc(F)c5F)cc4C)c3N)[nH]c2cc1NS(C)(=O)=O` [Example 4-2-062, N-[2-[5-amino-1-[6-(2,3-difluorophenoxy)-4-methylpyridin-3-yl]pyrazole-4-carbonyl]-5-methyl-1H-indol-6-yl]methanesulfonamide]: the IC50 stood at 3.2 nM in test [1] (setting [4]), 130 nM in test [2] (setting [4]) and 21 nM in test [3] (setting [4]).

Take `COc1ccnc(S(=O)(=O)Nc2cc3[nH]c(C(=O)c4cnn(-c5ccc(Oc6ccccc6F)cc5C)c4N)cc3cc2F)c1` [Example 5-1-512, N-[2-[5-amino-1-[4-(2-fluorophenoxy)-2-methylphenyl]pyrazole-4-carbonyl]-5-fluoro-1H-indol-6-yl]-4-methoxypyridine-2-sulfonamide]: the IC50 in test [1] (setting [4]) is 1.2 nM; in test [2] (setting [4]), 250 nM; in test [3] (setting [4]), 33 nM.

As to `Cc1cc(Oc2cccc(F)c2F)nc(C)c1-n1ncc(C(=O)c2cc3cc(F)c(NS(C)(=O)=O)cc3[nH]2)c1N` [Example 5-1-053, N-[2-[5-amino-1-[6-(2,3-difluorophenoxy)-2,4-dimethylpyridin-3-yl]pyrazole-4-carbonyl]-5-fluoro-1H-indol-6-yl]methanesulfonamide], the IC50 is 65 nM in test [1], 430 nM in test [2] and 97 nM in test [3].

For `Cc1cc(Oc2ccccc2F)cc(F)c1-n1ncc(C(=O)c2cc3cc(NS(C)(=O)=O)c(Cl)cc3[nH]2)c1N` [Example 4-2-093, N-[2-[5-amino-1-[2-fluoro-4-(2-fluorophenoxy)-6-methylphenyl]pyrazole-4-carbonyl]-6-chloro-1H-indol-5-yl]methanesulfonamide], the IC50 in test [1] (setting [4]) is 0.89 nM; in test [2] (setting [4]), 19 nM; in test [3] (setting [4]) it was 5.7 nM.

With `Cc1cc(-n2ncc(C(=O)c3cc4cc(OC5CCN(C6CS(=O)(=O)C6)CC5)c(-c5cncnc5)cc4[nH]3)c2N)ccc1Oc1ccccc1F` [Example 5-1-283, [5-amino-1-[4-(2-fluorophenoxy)-3-methylphenyl]pyrazol-4-yl]-[5-[1-(1,1-dioxothietan-3-yl)piperidin-4-yl]oxy-6-pyrimidin-5-yl-1H-indol-2-yl]methanone], the IC50 in test [1] came out at 2 nM; in test [2], 270 nM; in test [3], 32 nM.

With `Cc1cnc(F)c(S(=O)(=O)Nc2cc3[nH]c(C(=O)c4cnn(-c5ccc(Oc6ccccc6F)cc5C)c4N)cc3cc2F)c1` [Example 5-1-522, N-[2-[5-amino-1-[4-(2-fluorophenoxy)-2-methylphenyl]pyrazole-4-carbonyl]-5-fluoro-1H-indol-6-yl]-2-fluoro-5-methylpyridine-3-sulfonamide], the IC50 in test [1] (setting [4]) came to 1.8 nM; in test [2] (setting [4]) it was 250 nM; in test [3] (setting [4]) it was 120 nM.

In the case of `Cc1cc(Oc2c(F)cccc2F)ncc1-n1ncc(C(=O)c2cc3cc(OC4CCN(C(C)C)CC4)c(-c4cccs4)cc3[nH]2)c1N` [Example 5-1-239, [5-amino-1-[6-(2,6-difluorophenoxy)-4-methylpyridin-3-yl]pyrazol-4-yl]-[5-(1-propan-2-ylpiperidin-4-yl)oxy-6-thiophen-2-yl-1H-indol-2-yl]methanone], the IC50 in test [1] was determined as 5 nM; in test [2], 40 nM; in test [3], 16 nM.

`Cc1cc(Oc2ccccc2F)ccc1-n1ncc(C(=O)c2cc3cc(OCC(F)F)c(N4CCC(N5CCOCC5)CC4)cc3[nH]2)c1N` [Example 4-25-028, [5-amino-1-[4-(2-fluorophenoxy)-2-methylphenyl]pyrazol-4-yl]-[5-(2,2-difluoroethoxy)-6-(4-morpholin-4-ylpiperidin-1-yl)-1H-indol-2-yl]methanone]: the IC50 was found to be 0.94 nM in test [1] (setting [4]), 13 nM in test [2] (setting [4]) and 4.9 nM in test [3] (setting [4]).

In the case of `Cc1cc(Oc2c(F)cccc2F)ncc1-n1ncc(C(=O)c2cc3cc(F)c(NC4CN(S(C)(=O)=O)C4)cc3[nH]2)c1N` [Example 5-1-102, [5-amino-1-[6-(2,6-difluorophenoxy)-4-methylpyridin-3-yl]pyrazol-4-yl]-[5-fluoro-6-[(1-methylsulfonylazetidin-3-yl)amino]-1H-indol-2-yl]methanone], the IC50 in test [1] was 0.77 nM; in test [2], 5 nM; in test [3], 1.3 nM.
